Legend:
[1] = system: HBV replication in HepAD38 cells; assay: Anti-HBV activity in HepAD38 cells, extracellular HBV DNA by QPCR; format: cell-based, HBV (genotype D, serotype ayw); conditions: Hepatitis B virus, HePAD38, 168 h, read-out: Anti-HBV EC50, HepAD38 cells, extracellular HBV DNA by QPCR, 7 days of incubation
Procedure: The anti-HBV activity of the Capsid Assembly Modulators (CAMs) was evaluated in a cell based assay utilizing the human hepatoma cell line HepAD38 (Ladner, S K., et al., 1998). HepAD38 cells were derived from the parental line, HepG2, that were stably transfected with a construct containing an HBV genome (genotype D, serotype ayw) under the control of a tetracycline repressible CMV promoter. Upon removal of tetracycline, viral pre-genomic RNA (pgRNA) and mRNAs are expressed and infectious viral particles are assembled and secreted into the culture medium providing a reliable, robust system to measure multiple steps of the HBV life cycle. Disruption of capsid formation results in reduced levels of DNA-containing virus particles that are released into the culture supernatant. To quantify the effect of CAMs on HBV replication, we developed a sensitive QPCR-based assay that measures extracellular HBV DNA levels upon treatment of HepAD38 cells with various concentrations of test compounds.
HepAD38 cells were maintained in DMEM/F12 medium containing 10% FBS, 400 μg/mL G418 and 0.3 μg/mL tetracycline (tet+medium) to maintain repression of HBV replication. To evaluate each compound, HepAD38 cells were seeded into 24-well collagen coated culture plates (Corning BioCoat) at a density of 200,000 cells per well in 1 mL of tet+medium and allowed to adhere overnight at 37° C., 5% CO2 in a humidified incubator. The following day, test articles were subjected to half-logo serial dilutions, ranging from 30 μM to 10 nM, in 100% DMSO at 200× the desired final assay concentration. Tetracycline was removed from the cells by aspirating the tet+medium and washing the cells once with growth medium lacking tetracycline (tet-). Various concentrations of each compound were added to the appropriate wells (1:200 dilution) and the plates were returned to the incubator. Following 7 days of incubation, culture supernatants were harvested and HBV DNA levels were evaluated by QPCR and compared to the vehicle treated control wells (i.e. DMSO alone).
To quantify HBV DNA levels, cell culture supernatants were diluted 1:10 in sterile, nuclease-free water (Gibco). The diluted supernatants were subsequently added to a PCR master mix containing 1× Roche Light Cycler Master Mix, 0.5 μM forward primer, 0.5 μM reverse primer (Fwd:
0.2 μM Roche Universal Probe Library Probe 25. The volume was brought to 20 μL with nuclease-free water and amplification of the HBV target sequence was performed using a Roche LightCycler 480 QPCR instrument. PCR extended out to 45 cycles with each cycle consisting of a denaturation step at 95° C. for 10 sec., followed by an annealing step at 60° C. for 10 sec. and a brief extension step at 72° C. for 1 sec.
Extracellular HBV DNA levels, expressed in copies/mL, were determined by comparison to a standard curve (10^2-10^9 copies/mL) using the Roche LightCycler analysis software. These values were subsequently converted to percent inhibition of HBV replication by dividing the HBV DNA levels in the experimental samples with those obtained from the vehicle control (˜1-2×10^5 copies/mL). Potency, expressed as an EC50 (the effective concentration required to inhibit […] of HBV replication), was calculated from the dose-response curve using a 4-parameter non-linear regression analysis (GraphPad Prism). The nucleoside analog inhibitor entecavir was used as a positive control to validate each assay run. The EC50 value of entecavir in the HepAD38 assay was 0.5 nM, as previously reported in the literature.

[2] = In vitro cytotoxicity, MTT cell viability assay in HepG2 cells; format: cell-based; conditions: human, Cytotoxicity CC50
Procedure: To evaluate antiviral selectivity, the cytotoxic activity of each compound was determined using a standard cell viability assay performed on the parental HepG2 cell line. Cell viability was determined by measuring the conversion of 3-(4,5-dimethylthiazol-2-yl)-2,5-diphenyltetrazolium bromide (MTT) to the insoluble formazan salt crystal that occurs in live cells. Briefly, HepG2 cells were seeded in 96-well plates at a density of 20,000 cells per well in EMEM+10% FBS (complete growth medium) and allowed to adhere overnight in a 37° C., 5% CO2 humidified incubator. The next day, test agents were prepared by performing 8 half-log10 serial dilutions in 100% DMSO at 200× the final desired concentration in the assay. Compounds were tested over a range of concentrations from 30 μM to 1.0 nM in the assay. HepG2 cells were incubated in the presence of various concentrations of CAMs for 7 days in a 37° C., 5% CO2 humidified incubator. At the completion of the 7-day incubation period, MTT reagent was added to each well and the mixture was incubated for an additional 3-4 hours. At the completion of the incubation period, all wells were aspirated to remove the culture medium. The formazan crystals were solubilized from the cell monolayers with 100% DMSO. Plates were briefly mixed on an orbital shaker and absorbance was measured at 492 nm using a Perkin-Elmer EnVision multi-label plate reader. All absorbance values were converted to a percentage of the signal obtained from the vehicle treated controls. Absorbance values at 492 nm are directly proportional to the number of viable cells present in the sample. A CC50 value (cytotoxic concentration that results in loss of 50% cell viability) was calculated from the dose-response curve by 4-parameter, non-linear regression analysis using the GraphPad Prism software. The positive control compound, staurosporine, reduced the viability of HepG2 cells in a dose-dependent manner (CC50=100 nM).

SMILES | EC50 [1] [µM] | CC50 at 7 days [2] [µM]
Cc1cc(NC(=O)c2ccc(F)c(C(F)(F)C(=O)N3CCC(O)CC3)c2)cc(F)c1F [Example 159, 3-(1,1-difluoro-2-(4-hydroxypiperidin-1-yl)-2-oxoethyl)-N-(3,4-difluoro-5-methylphenyl)-4-fluorobenzamide] | < 5 | 5 to 30
CC(=O)NC1CCN(C(=O)C(F)(F)c2cc(C(=O)Nc3ccc(F)c(C)c3)ccc2F)CC1(C)C (centres unmarked) [Example 287, 3-(2-(4-acetamido-3,3-dimethylpiperidin-1-yl)-1,1-difluoro-2-oxoethyl)-4-fluoro-N-(4-fluoro-3-methylphenyl)benzamide] | < 5 | 5 to 30
Cc1cc(NC(=O)c2ccn(C)c2C(F)(F)C(=O)NC(C)C(F)(F)F)ccc1F (centres unmarked) [Example 112, 2-(1,1-difluoro-2-oxo-2-((1,1,1-trifluoropropan-2-yl)amino)ethyl)-N-(4-fluoro-3-methylphenyl)-1-methyl-1H-pyrrole-3-carboxamide] | > 30 | > 30
CC(C)(CCO)NC(=O)C(F)(F)c1cc(C(=O)Nc2ccc(F)c(F)c2)ccc1F [Example 45, 3-(1,1-difluoro-2-((4-hydroxy-2-methylbutan-2-yl)amino)-2-oxoethyl)-N-(3,4-difluorophenyl)-4-fluorobenzamide] | < 5 | 5 to 30
O=C(Nc1cc(F)c(F)c(F)c1)c1ccc(F)c(C(F)(F)C(=O)N2CCC(O)CC2)c1 [Example 86, 3-(1,1-difluoro-2-(4-hydroxypiperidin-1-yl)-2-oxoethyl)-4-fluoro-N-(3,4,5-trifluorophenyl)benzamide] | < 5 | 5 to 30
Cc1cc(NC(=O)c2ccc(F)c(C(F)(F)C(=O)N3CCC(O)CC3)c2)cc(F)n1 [Example 160, 3-(1,1-difluoro-2-(4-hydroxypiperidin-1-yl)-2-oxoethyl)-4-fluoro-N-(2-fluoro-6-methylpyridin-4-yl)benzamide] | 5 to 30 | 5 to 30
CC(=O)N[C@@H]1C[C@H]2CC[C@@H](C1)N2C(=O)C(F)(F)c1cc(C(=O)Nc2ccc(F)c(C)c2)ccc1F [Example 227, 3-(2-((1R,3s,5S)-3-acetamido-8-azabicyclo[3.2.1]octan-8-yl)-1,1-difluoro-2-oxoethyl)-4-fluoro-N-(4-fluoro-3-methylphenyl)benzamide] | < 5 | 5 to 30
Cc1cc(NC(=O)c2ccc(F)c(C(F)(F)C(=O)N3[C@@H]4COC[C@H]3CN(S(N)(=O)=O)C4)c2)ccc1F [Example 266, 3-(1,1-difluoro-2-oxo-2-((1R,5S)-7-sulfamoyl-3-oxa-7,9-diazabicyclo[3.3.1]nonan-9-yl)ethyl)-4-fluoro-N-(4-fluoro-3-methylphenyl)benzamide] | < 5 | > 30
CC(C)(C)NC(=O)C(O)c1cc(C(=O)Nc2ccc(F)c(F)c2)ccc1F (centres unmarked) [Example 119, 3-(2-(tert-butylamino)-1-hydroxy-2-oxoethyl)-N-(3,4-difluorophenyl)-4-fluorobenzamide] | 5 to 30 | 5 to 30
Cc1cc(NC(=O)c2ccc(F)c(C(F)(F)C(=O)N3CCC(NS(C)(=O)=O)CC3)c2)ccc1F [Example 231, 3-(1,1-difluoro-2-(4-(methylsulfonamido)piperidin-1-yl)-2-oxoethyl)-4-fluoro-N-(4-fluoro-3-methylphenyl)benzamide] | < 5 | 5 to 30
Cc1cc(NC(=O)c2ccc(F)c(C(F)(F)C(=O)N3CCC(O)C(C)(C)C3)c2)ccc1F (centres unmarked) [Example 72] | < 5 | 5 to 30
O=C(Nc1ccnc(Cl)c1)c1ccc(F)c(C(F)(F)C(=O)N2CCC(O)(CO)CC2)c1 [Example 198, N-(2-chloropyridin-4-yl)-3-(1,1-difluoro-2-(4-hydroxy-4-(hydroxymethyl)piperidin-1-yl)-2-oxoethyl)-4-fluorobenzamide] | < 5 | 5 to 30
Cc1cc(NC(=O)c2ccc(F)c(C(F)(F)C(=O)N3CCC4(CC3)NC(=O)NC4=O)c2)ccc1F [Example 269, 3-(2-(2,4-dioxo-1,3,8-triazaspiro[4.5]decan-8-yl)-1,1-difluoro-2-oxoethyl)-4-fluoro-N-(4-fluoro-3-methylphenyl)benzamide] | < 5 | > 30
O=C(Nc1ccc(F)c(F)c1)c1ccc(F)c(C(F)(F)C(=O)Nc2ccncc2)c1 [Example 50, 3-(1,1-difluoro-2-oxo-2-(pyridin-4-ylamino)ethyl)-N-(3,4-difluorophenyl)-4-fluorobenzamide] | 5 to 30 | 5 to 30
Cc1cc(NC(=O)c2ccc(F)c(C(F)(F)C(=O)N3[C@@H]4CC[C@H]3CC(O)(CC(N)=O)C4)c2)ccc1F (stereo partly drawn) [Example 241, 3-(2-((1R,5S)-3-(2-amino-2-oxoethyl)-3-hydroxy-8-azabicyclo[3.2.1]octan-8-yl)-1,1-difluoro-2-oxoethyl)-4-fluoro-N-(4-fluoro-3-methylphenyl)benzamide] | < 5 | 5 to 30
Cc1cc(NC(=O)c2ccc(F)c(C(F)(F)C(=O)N3CCC(N4CCOCC4)CC3)c2)ccc1F [Example 267, 3-(1,1-difluoro-2-(4-morpholinopiperidin-1-yl)-2-oxoethyl)-4-fluoro-N-(4-fluoro-3-methylphenyl)benzamide] | 5 to 30 | 5 to 30
CC(=O)NC1CCN(C(=O)C(F)(F)c2cc(C(=O)Nc3ccc(F)c(C)c3)ccc2N)CC1(C)C (centres unmarked) [Example 311, 3-(2-(4-acetamido-3,3-dimethylpiperidin-1-yl)-1,1-difluoro-2-oxoethyl)-4-amino-N-(4-fluoro-3-methylphenyl)benzamide] | < 5 | > 30
Cc1cc(NC(=O)c2ccc(F)c(C(F)(F)C(=O)N[C@H]3CCOB3O)c2)ccc1F [Example 150, (R)-3-(1,1-difluoro-2-((2-hydroxy-1,2-oxaborolan-3-yl)amino)-2-oxoethyl)-4-fluoro-N-(4-fluoro-3-methylphenyl)benzamide] | < 5 | > 30
Cc1cc(NC(=O)c2ccc(F)c(C(F)(F)C(=O)N3CC4CCC(C3)C4O)c2)ccc1F [Example 281, 3-(1,1-difluoro-2-((1R,5S,8s)-8-hydroxy-3-azabicyclo[3.2.1]octan-3-yl)-2-oxoethyl)-4-fluoro-N-(4-fluoro-3-methylphenyl)benzamide] | < 5 | 5 to 30

From patent US11247965B2 (VenatoRx Pharmaceuticals, Inc., priority 2017, dated 2022)
